Consider 1 molecule from publication PMC7310027, “PET imaging of soluble epoxide hydrolase in non-human primate brain with [^18F]FNDP” (EJNMMI Research, 2020).

SMILES strings stand for the structures.

For series [1], the system named is soluble epoxide hydrolase (sEH). In words: Baboon [^18F]FNDP PET, dose-escalation blocking with AR-9281 (Lassen plot, occupancy). It counts as in vivo, baboon (Papio anubis). On the procedure:
PET images were acquired using a CPS/CTI high-resolution research tomograph (HRRT), which has an axial resolution (FWHM) of 2.4 mm and in-plane resolution of 2.4–2.8 mm. […] These blocking studies were performed 27 to 43 days apart from each other to ensure full animal recovery. The animals had no food for 12 h prior to each PET study. Anesthesia was induced with intramuscular ketamine (7.5–10 mg/kg) and maintained with a continuous intravenous infusion of propofol at 0.3–0.4 mg/kg/min throughout the PET experiment. One venous catheter was inserted for the radioligand injection, and one arterial catheter was inserted to obtain arterial blood samples. Baboons were intubated to facilitate respiration, and circulatory volume was maintained by constant infusion of isotonic saline. Physiological vital signs including heart rate, blood pressure, electrocardiogram, and oxygen saturation were monitored continuously throughout the study.
The animals were positioned in the PET scanner with the head immobilized using a thermoplastic mask. […] The 90-min dynamic PET acquisition was then started in three-dimensional list mode simultaneously with an intravenous bolus injection of [^18F]FNDP. […]
Next, kinetic modeling was performed based on the TACs and the metabolite-corrected arterial plasma input functions. For brain uptake, the primary outcome measure was the regional brain distribution volume (VT) of [^18F]FNDP, defined as concentration of the radiotracer in regional tissue relative to that in blood at equilibrium. We evaluated which compartmental models (e.g., two-tissue-three-compartment (2TCM) or one-tissue-two-compartment (1TCM)) best described the [^18F]FNDP PET data, using statistical model selection criteria, such as the Akaike information criterion. For comparison, the Logan graphical method (t* = 30 min) was also used to compute regional VT, as well as generating voxel-wise parametric images of VT [31].
For blocking studies, occupancy of sEH by FNDP was calculated using regional VT values as Eq 1 Occupancy=ΔVT/VTBaseline−VND,
where VND, the distribution volume of non-displaceable radioligand, was obtained from the Lassen plot, i.e., using a scatterplot of ΔVT (i.e., baseline VT minus post-blocking VT) versus baseline VT of all regions. […] When that condition was satisfied, VND was given as the intercept of the regression line with the X-axis. The non-displaceable binding potential (BPND) was computed as VT /VND − 1.

Series [2] in a line: Baboon plasma radiometabolite analysis by HPLC. Format: in vivo, baboon (Papio anubis). On the procedure: Measurement of the arterial plasma input function was conducted through collection of ~ 40 blood samples over the course of the 90-min dynamic PET study. […] Samples were then centrifuged at 1200 × g, and the plasma radioactivity was measured with a cross-calibrated PerkinElmer Wizard 2480 automatic gamma counter.
Select plasma samples (0, 5, 10, 20, 30, 60, and 90 min) were analyzed for radiometabolites using high-performance liquid chromatography (HPLC). The modified column-switching HPLC method was used. The HPLC system consisting of a 1260 infinity quaternary pump, a 1260 infinity column compartment module, a 1260 infinity UV detector, and a Raytest GABI Star radiation detector, was operated with OpenLab CDS EZChrom (A.01.04) software. […] After 1 min of isocratic elution, analytical mobile phase composed of 65% acetonitrile and 35% water with 0.06 M trimethylamine (at pH = 7.2, adjusted with phosphoric acid) was applied to direct non-polar compounds trapped on the capture column to an analytical column (Gemini C18(2), 10 μm, 4.6 × 250 mm) and detectors at 2 mL/min. The HPLC system was standardized for mass using non-radioactive FNDP prior to analysis of the blood plasma samples, which were spiked with 5 μL of non-radioactive FNDP at a concentration of 1 mg/mL.

A short description of series [3]: Murine radiometabolite analysis (blood and brain) by RP-HPLC. It counts as in vivo, CD-1 mice. On the procedure: Male CD-1 mice (25–26 g) were injected via the lateral tail vein with 37 MBq of high specific activity (1.1 TBq/μmol or 29.7 Ci/μmol) [^18F]FNDP. The mice were sacrificed by cervical dislocation at 10 and 30 min after injection, and a terminal blood sample was obtained. The mouse brains were rapidly removed, homogenized in 2 mL of ACN:H2O 50%–50% (vol) with 0.06 M ammonium formate to extract parent tracer and radiometabolites, centrifuged at 20,000 g at 4 °C. Resulting supernatants were analyzed by reverse-phase (RP)-HPLC.

Details of series [4]: method as in PMID 27417650. The note with it: mouse brain; cited from earlier work.
The test system of a further series is sEH. Also on record: method as in PMID 27417650. The conditions noted are these: self-blockade experiments; cited from earlier work.

In the case of `O=C(NCCC(c1ccccc1)c1ccccc1)c1ccc([18F])nc1` [[^18F]FNDP, N-(3,3-diphenylpropyl)-6-^18F-fluoronicotinamide], the “K1 (2TCM)” value in series [1] (0.02-mg/kg AR-9281 blocking scan, Baboon3) was 0.170 ± 0.021 mL/cm^3/min; in series [1] (0.1-mg/kg AR-9281 blocking scan, Baboon3), 0.179 ± 0.026 mL/cm^3/min; in series [1] (1-mg/kg AR-9281 blocking scan, Baboon3), 0.166 ± 0.032 mL/cm^3/min. For the same molecule, in series [1] (Lassen plot, AR-9281 blocking scans, Baboon3), the “VND (distribution volume of non-displaceable radioligand)” value stood at 0.865 ± 0.066 mL/mL. In addition, the “specific binding (binding specificity)” value in series [1] (baboon brain) is recorded as 91.70 ± 1.74%. The total distribution volume (VT) in series [1] (male, baboon (Papio anubis), brain, intravenous, read-out: high-dose blocking VT) stood at 1 ± 0.09. The “fraction of radioactivity by HPLC (Met-1, Met-2, parent)” value in series [2] (Baboon blood (10 min)) was 77.0 ± 3.6%; in series [2] (Baboon blood (30 min)), 46.5 ± 6.4%; in series [2] (Baboon blood (60 min)) it was 28.3 ± 9.3%; in series [2] (Baboon blood (90 min)) it was 21.8 ± 7.0%; in series [3] (Mouse blood (10 min)), 63.4 ± 4.4%; in series [3] (Mouse blood (30 min)), 50.1 ± 10.5%. Besides, the “fraction of radioactivity by HPLC (Met-1, Met-2, parent)” value in series [3] (Mouse brain (10 min)) is listed as 99.2 ± 0.3%; in series [3] (Mouse brain (30 min)) it was 98.3 ± 0.3%. In addition, the “suggested fraction of brain radioactivity that is parent” value in series [2] (baboon brain, extrapolated) is over 95%. The “brain uptake, injected dose per gram of tissue” value in series [4] is 5 % ID/g. Moreover, the “binding specificity for sEH” value with sEH is ~ 95%.
